{"source": "ChEMBL document CHEMBL1130549", "about": "“Dihydroisoquinolone RGD mimics. Exploration of the aspartate isostere” (Bioorg Med Chem Lett, 1997)", "assay_type_in_all_cases": "protein-complex assay", "key": {"[1]": {"target": "T1, Integrin alpha-IIb/beta-3 (Homo sapiens, UniProt P05106+P08514)", "T1 sequence (P05106 27-788 limits assumed)": "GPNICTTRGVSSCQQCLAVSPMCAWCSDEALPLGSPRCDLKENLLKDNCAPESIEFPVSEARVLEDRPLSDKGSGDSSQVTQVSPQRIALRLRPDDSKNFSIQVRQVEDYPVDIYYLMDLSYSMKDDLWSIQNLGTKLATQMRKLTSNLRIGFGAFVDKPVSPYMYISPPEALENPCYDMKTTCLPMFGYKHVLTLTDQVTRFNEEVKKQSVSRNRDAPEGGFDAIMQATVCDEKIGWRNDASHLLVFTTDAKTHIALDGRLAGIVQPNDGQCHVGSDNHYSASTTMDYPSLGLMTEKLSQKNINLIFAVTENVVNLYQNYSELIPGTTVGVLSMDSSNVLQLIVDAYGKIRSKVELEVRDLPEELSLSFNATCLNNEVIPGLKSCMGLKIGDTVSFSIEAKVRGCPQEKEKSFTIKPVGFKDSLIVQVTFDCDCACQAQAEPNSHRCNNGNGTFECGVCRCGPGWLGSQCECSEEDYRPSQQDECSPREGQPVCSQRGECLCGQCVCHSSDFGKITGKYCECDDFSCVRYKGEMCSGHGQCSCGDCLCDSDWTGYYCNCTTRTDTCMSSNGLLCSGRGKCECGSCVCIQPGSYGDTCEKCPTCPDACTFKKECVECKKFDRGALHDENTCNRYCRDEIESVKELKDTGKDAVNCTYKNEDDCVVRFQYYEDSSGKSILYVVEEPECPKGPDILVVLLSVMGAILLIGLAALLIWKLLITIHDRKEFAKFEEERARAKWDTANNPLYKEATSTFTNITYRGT", "T1 sequence (P08514 32-887 limits assumed)": "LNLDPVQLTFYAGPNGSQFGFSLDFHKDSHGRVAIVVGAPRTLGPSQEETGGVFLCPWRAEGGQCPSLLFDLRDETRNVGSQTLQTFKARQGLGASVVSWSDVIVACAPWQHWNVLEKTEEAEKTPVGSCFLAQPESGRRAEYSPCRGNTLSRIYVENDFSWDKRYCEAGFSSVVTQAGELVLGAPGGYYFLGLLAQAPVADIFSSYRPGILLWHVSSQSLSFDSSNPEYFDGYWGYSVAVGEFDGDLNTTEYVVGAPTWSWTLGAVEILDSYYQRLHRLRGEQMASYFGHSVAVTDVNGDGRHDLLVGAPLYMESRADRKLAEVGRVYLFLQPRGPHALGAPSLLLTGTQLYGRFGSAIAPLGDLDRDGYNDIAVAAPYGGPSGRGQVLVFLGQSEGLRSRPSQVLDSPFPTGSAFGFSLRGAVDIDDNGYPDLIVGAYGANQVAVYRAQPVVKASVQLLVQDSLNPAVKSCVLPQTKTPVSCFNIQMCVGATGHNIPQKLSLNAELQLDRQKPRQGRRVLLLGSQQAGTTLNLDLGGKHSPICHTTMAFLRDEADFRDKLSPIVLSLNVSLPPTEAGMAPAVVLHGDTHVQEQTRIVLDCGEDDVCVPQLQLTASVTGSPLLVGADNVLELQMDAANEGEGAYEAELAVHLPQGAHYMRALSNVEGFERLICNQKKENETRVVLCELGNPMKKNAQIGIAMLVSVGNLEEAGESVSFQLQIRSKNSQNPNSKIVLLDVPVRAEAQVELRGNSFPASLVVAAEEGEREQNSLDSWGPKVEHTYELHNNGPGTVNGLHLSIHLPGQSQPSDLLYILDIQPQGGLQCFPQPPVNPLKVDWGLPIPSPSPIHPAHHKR", "T1 sequence (P08514 891-1039 limits assumed)": "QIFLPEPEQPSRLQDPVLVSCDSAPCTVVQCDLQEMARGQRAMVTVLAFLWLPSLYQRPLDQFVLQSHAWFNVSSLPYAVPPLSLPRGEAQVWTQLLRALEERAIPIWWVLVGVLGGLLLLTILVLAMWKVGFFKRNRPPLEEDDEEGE", "assay": "Inhibition of fibrinogen binding to purified human alpha IIb beta-3 integrin by 50% in an ELISA test"}, "[2]": {"target": "T1, Integrin alpha-IIb/beta-3", "assay": "Inhibition of fibrinogen binding to purified Human alphaIIb-beta3 integrin in ELISA with 0.1% bovine serum albumin (BSA)"}, "[3]": {"target": "T1, Integrin alpha-IIb/beta-3", "assay": "Inhibition of fibrinogen binding to purified Human alphaIIb-beta3 integrin in ELISA with 4.5% bovine serum albumin (BSA)"}, "[4]": {"target": "T1, Integrin alpha-IIb/beta-3", "assay": "Inhibition of fibrinogen binding to purified Human alphaIIb-beta3 integrin in ELISA with 1% bovine serum albumin (BSA)"}}, "note": "Positions of bridges follow the written chain, without caps; N, C: chain ends. Non-standard residues stand in square brackets, D forms with d. Residues, ends and D or L forms follow the SMILES beside them. Pen = CC(C)(S)[C@H](N)C(=O)O; Mpa = O=C(O)CCS"}
{"smiles": "CCCC(CC(=O)O)N1CCc2cc(OCc3ccc(C(=N)N)cc3)ccc2C1=O", "note": "(stereo not drawn)", "values": [{"measurement": "IC50", "setting": "[1]", "result": 47, "unit": "nM"}]}
{"smiles": "CC1(C)SSCCC(=O)N[C@@H](CCCNC(=N)N)C(=O)NCC(=O)N[C@@H](CC(=O)O)C(=O)N[C@@H](Cc2c[nH]c3ccccc23)C(=O)N2CCC[C@H]2C(=O)N[C@@H]1C(N)=O", "note": "([Mpa]RGDWP[Pen]-NH2; disulfide 1-7)", "values": [{"measurement": "IC50", "setting": "[1]", "result": 100, "unit": "nM"}]}
{"smiles": "CCOCCCC(CC(=O)O)N1CCc2cc(OCc3ccc(C(=N)N)cc3)ccc2C1=O", "note": "(stereo not drawn)", "values": [{"measurement": "IC50", "setting": "[2]", "result": 61, "unit": "nM"}, {"measurement": "IC50", "setting": "[3]", "result": 100, "unit": "nM"}, {"measurement": "IC50", "setting": "[4]", "result": 73, "unit": "nM"}]}
{"smiles": "COC(=O)c1ccc(C(CC(=O)O)N2CCc3cc(OCc4ccc(C(=N)N)cc4)ccc3C2=O)cc1", "note": "(stereo not drawn)", "values": [{"measurement": "IC50", "setting": "[1]", "result": 6, "unit": "nM"}]}
{"smiles": "CCCC(CN1CCc2cc(OCc3ccc(C(=N)N)cc3)ccc2C1=O)C(=O)O", "note": "(stereo not drawn)", "values": [{"measurement": "IC50", "setting": "[1]", "result": 1800, "unit": "nM"}]}
{"smiles": "COc1ccc(C(CC(=O)O)N2CCc3cc(OCc4ccc(C(=N)N)cc4)ccc3C2=O)cc1", "note": "(stereo not drawn)", "values": [{"measurement": "IC50", "setting": "[1]", "result": 8, "unit": "nM"}]}
{"smiles": "CCCCCCC(CC(=O)O)N1CCc2cc(OCc3ccc(C(=N)N)cc3)ccc2C1=O", "note": "(stereo not drawn)", "values": [{"measurement": "IC50", "setting": "[2]", "result": 41, "unit": "nM"}, {"measurement": "IC50", "setting": "[1]", "result": 41, "unit": "nM"}, {"measurement": "IC50", "setting": "[3]", "result": 310, "unit": "nM"}, {"measurement": "IC50", "setting": "[4]", "result": 80, "unit": "nM"}]}
{"smiles": "COCCOCC(CC(=O)O)N1CCc2cc(OCc3ccc(C(=N)N)cc3)ccc2C1=O", "note": "(stereo not drawn)", "values": [{"measurement": "IC50", "setting": "[1]", "result": 90, "unit": "nM"}]}
{"smiles": "N=C(N)c1ccc(COc2ccc3c(c2)CCN(C(CC(=O)O)c2ccccc2)C3=O)cc1", "note": "(stereo not drawn)", "values": [{"measurement": "IC50", "setting": "[1]", "result": 7, "unit": "nM"}]}
{"smiles": "CCC(CC(=O)O)N1CCc2cc(OCc3ccc(C(=N)N)cc3)ccc2C1=O", "note": "(stereo not drawn)", "values": [{"measurement": "IC50", "setting": "[1]", "result": 46, "unit": "nM"}]}
{"smiles": "N=C(N)c1ccc(C(=O)Nc2ccc3c(c2)CCN(CC(=O)O)C3=O)cc1", "values": [{"measurement": "IC50", "setting": "[1]", "result": 3, "unit": "nM"}]}
{"smiles": "CCCCCC(CC(=O)O)N1CCc2cc(OCc3ccc(C(=N)N)cc3)ccc2C1=O", "note": "(stereo not drawn)", "values": [{"measurement": "IC50", "setting": "[2]", "result": 24, "unit": "nM"}, {"measurement": "IC50", "setting": "[3]", "result": 100, "unit": "nM"}, {"measurement": "IC50", "setting": "[4]", "result": 40, "unit": "nM"}]}
{"smiles": "N=C(N)c1ccc(COc2ccc3c(c2)CCN(CCC(=O)O)C3=O)cc1", "values": [{"measurement": "IC50", "setting": "[1]", "result": 320, "unit": "nM"}]}
{"smiles": "CCCCC(CC(=O)O)N1CCc2cc(OCc3ccc(C(=N)N)cc3)ccc2C1=O", "note": "(stereo not drawn)", "values": [{"measurement": "IC50", "setting": "[1]", "result": 40, "unit": "nM"}]}
{"smiles": "COCCCC(CC(=O)O)N1CCc2cc(OCc3ccc(C(=N)N)cc3)ccc2C1=O", "note": "(stereo not drawn)", "values": [{"measurement": "IC50", "setting": "[1]", "result": 56, "unit": "nM"}]}
{"smiles": "CCCC(C(=O)O)N1CCc2cc(OCc3ccc(C(=N)N)cc3)ccc2C1=O", "note": "(stereo not drawn)", "values": [{"measurement": "IC50", "setting": "[1]", "result": 1700, "unit": "nM"}]}
